In patent publication US20180344725A1, “QUINOLONE CHALCONE COMPOUNDS AND USES THEREOF” (priority 2015, published 2018):

Assays:
184B5 = assay: SRB-based cytotoxicity assay; format: cell-based; details: Homo sapiens, 184B5 non-cancer
Protocol: (§1) For (anti)proliferation assays, 4,000-5,000 cells/well of the 96-well clustered dish were incubated for 16 hours, as described previously (Hu et al., 2008; Skehan et al., 1990). After 16 hours, culture medium was replaced with fresh medium containing different dilutions of test compounds dissolved in DMSO. Some wells were treated with 100 μl of 10% trichloroacetic acid (TCA) as a negative control and sham (medium with dimethyl sulfoxide; DMSO) treated cells were used as a positive control. After 72 hours post-incubation, medium was removed and cells were fixed with 10% TCA at 4° C. for 1 hour. TCA was removed and cells were washed with cold tap water, and plate was air-dried, followed by addition of 50 μl of 0.4% SRB staining solution to each well. After 30 minutes incubation, SRB staining solution was removed. Cells were washed with 1% acetic acid solution, and then washed with tap water to remove unbound staining solution, followed by air-drying. 200 μl of 10 mM (pH10.5) trizma base buffer was added to each well to solubilise macromolecules. SRB stained macromolecules were determined at a 540 nm wavelength using an automated plate reader (Synergy H4 Hybrid Multi-Mode Microplate Reader, BioTek, Winooski, Vt.). Cell growth (inhibition) was calculated by the following formula:
(§2) % cells proliferation=[(AT−CT)/(ST−CT)]×100
(§3) wherein AT=absorbance of treated cells, CT=absorbance of negative control cells, and ST=absorbance of sham treated cells. IC50 values were calculated from sigmoidal dose-response curves generated by two independent biological replicates, with quadruplicate in each set by using Graph Pad Prism v.5.04 software. […] The combinational index (CI) was calculated as described previously (Chou 2006). If the CI values were less than, equal to or more than 1, it indicates a synergistic, additive or antagonistic effect respectively (Chou 2006). CI values were determined from four independent experiments.

HeLa = assay: SRB-based cytotoxicity assay; format: cell-based; details: for IC50: HeLa
Protocol: as §1, §2, §3

MCF10CA1a = assay: SRB cell viability, isogenic breast cell lines; format: cell-based; details: MCF10CA1a (MCF10Ala [sic]), 72 hours; for Cell survival rate: 0.39 μM; for viability at 0.03125 µM: 31.25 nM
Protocol: FIG. 9 illustrates that CTR-17, CTR-20, CTR-21 and CTR-32 preferentially kill the fully malignant […] breast cancer cells over the pre-malignant MCF10AT1 and the non-malignant MCF-10A breast cells. Cells were treated with (A) CTR-17 at doses of 0.10, 0.39, 1.56 or 6.25 μM; (B) CTR-20 at doses of 0.10, 0.39, 1.56 or 6.25 μM; (C) CTR-21 at doses of 7.81, 15.63, 31.25, 62.5, 125 or 250 nM; or (D) CTR-32 at doses of 7.81, 15.63, 31.25, 62.5, 125 or 250 nM for 72 hours. Cell viability was determined using an SRB assay.
All of the cell lines used were purchased from ATCC and cultured in RPMI-1640 supplemented with 10% fetal bovine serum and antibiotics (100 units penicillin/100 μg/ml streptomycin), unless stated otherwise. 1845B5 and MCF-10A non-cancer breast cell lines were cultured in DME/F12 medium supplemented with 10% fetal bovine serum, antibiotics and growth factors. KB-3-1 is a human epidermal carcinoma cell line and KB-C-2 is its isogenic multidrug-resistant cell line with over-expressing ABCB1/P-gp. […] The human small cell lung carcinoma H69 cell line and its multidrug-resistant MRP1-overexpressing isogenic H69AR cell line were purchased from ATCC. The H69AR cell line was established in the presence of increasing concentrations of Adriamycin (doxorubicin). H69 cells grow as large multi-cell aggregates, making it difficult to accurately count cell numbers. Therefore, the cytotoxicity results obtained from H69AR cells were compared to SW1271, a small cell lung carcinoma cell line without a multidrug-resistant phenotype. The IL-6 dependent bortezomib-resistant ANBL6-BR cell line was further supplemented with 1 ng/ml of IL-6. The MCF10AT1 and MCF10CA1a cell lines are isogenic to the MCF10A cell line, and obtained from Dr. Valerie Weaver at the Center for Bioengineering and Tissue Regeneration, UCSF, CA, USA. MCF10AT1 is a premalignant cell line generated by transforming MCF10A with c-Ha-Ras; and MCF10CA1a was isolated by selecting malignant cells after MCF10AT1 cells were engrafted into mice (Liu & Lin 2004; Marella et al. 2009). The MCF10AT1 and MCF10CA1a cells were cultured in DMEM supplemented with 10% FBS (volume/volume). MDA-MB231TaxR cell line was generated in house by culturing MDA-MB231 cells in gradually increasing doses of paclitaxel over one-year period, and finally maintained at 100 nM paclitaxel. The drug-resistant cells were cultured in the absence of drug for at least one passage before carrying out experiments. All cells were maintained in a humidified incubator at 37° C. (5% CO2/95% air). Cell line authentication was performed using short tandem repeat (STR) profiling.
as §1, with “formula: […]” for “formula:”

purified porcine tubulin = assay: Microtubule polymerization assay; format: biochemical; details: 1.0 mM GTP, 1 hour at 37° C.
Protocol: The effects of the tested CTR compounds of the present disclosure on the assembly of purified tubulin were determined using a tubulin polymerization kit according to the manufacturer's instructions (Cytoskeleton Inc., Denver, Colo.). Paclitaxel (provided in the same kit), nocodazole, and colchicine (Santa Cruz, Calif.) were used as controls for the assay. The absorbent-based assay kit is based on the principle that the light scattered by the microtubules is directly proportional to the polymer mass of the microtubules when measured at 37° C. at a wavelength of 340 nm. The fluorescence-based assay kit is on the principle that fluorescent reporter molecules are incorporated into microtubules as the polymerization process being occurred. The fluorescence enhancement was measured for one hour at one-minute intervals, at the excitation of 350 nm and the emission of 430 nm. Absorbance or fluorescence was measured with an automated plate reader (Synergy H4 Hybrid Multi-Mode Microplate Reader, Bio-Tek).

Row | SMILES | IC50 (184B5; SRB, Table 2) [nM] | IC50 (HeLa; Homo sapiens, SRB, Table 2) [nM] | Cell survival rate (MCF10CA1a) [%] | effect on tubulin/microtubule polymerization (purified porcine tubulin) | preferentially kill cancer over non-cancer cells (HeLa; HeLa versus MCF-10A) [times] | IC50 (184B5; 72 hours, Table 4) [nM] | IC50 (HeLa; 72 hours, Table 4) [nM] | viability at 0.03125 µM (MCF10CA1a) [%]
1 | COc1ccccc1C(=O)/C=C/c1cc2ccccc2[nH]c1=O [CTR-17, (E)-3-(3-(2-Methoxyphenyl)-3-oxoprop-1-enyl)quinolin-2(1H)-one] | 3490 ± 30 | 330 ± 60 | 39 | inhibited tubulin polymerization |  |  |  | 
2 | COc1ccc2[nH]c(=O)c(/C=C/C(=O)c3ccccc3OC)cc2c1 [CTR-20, (E)-6-Methoxy-3-(3-(2-methoxyphenyl)-3-oxoprop-1-enyl) quinolin-2(1H)-one] | 1240 ± 60 | 100 ± 20 | 10 | inhibited tubulin polymerization | ≤ 24 |  |  | 
3 | COc1ccccc1C(=O)/C=C/c1cc2cccc(OC)c2[nH]c1=O [CTR-21, (E)-8-methoxy-3-(3-(2-methoxyphenyl)-3-oxoprop-1-enyl) quinolin-2(1H)-one] |  |  |  | microtubule polymerization inhibitors |  | 37 ± 2.5 | 11.9 ± 1.4 | 10
4 | CCOc1ccccc1C(=O)/C=C/c1cc2ccccc2[nH]c1=O [CTR-32, (E)-3-(3-(2-ethoxyphenyl)-3-oxoprop-1-enyl)quinolin-2(1H)-one] |  |  |  | microtubule polymerization inhibitors |  | 52 ± 7.35 | 12.9 ± 0.35 | 40
